Data published in US20220202792A1, “METHODS AND COMPOSITIONS FOR TREATING CHRONIC INFLAMMATORY INJURY, METAPLASIA, DYSPLASIA AND CANCERS OF EPITHELIAL TISSUES” (University of Houston System, priority 2019, published 2022).
pIC50: −log10 of the molar value.

How the values were obtained:
[1] = test system: Barrett's stem cells and esophageal squamous stem cells xenograft; experiment: Mouse xenograft of co-injected esophageal squamous and GFP labeled Barrett's stem cells; assay type: in vivo, mice
Excerpt: The effect of these chemicals on BE in a xenograft model was further examined. The esophageal squamous stem cells and GFP labeled Barrett's stem cells were mixed and co-injected into the immunodeficient mice. […] Two weeks following the treatment, the xenografts were collected and examined through histology analysis and clonogenic analysis.

[2] = test system: Barrett's stem cells and Esophageal stem cells; experiment: Co-culture of Barrett's stem cell lines and Esophageal stem cells; assay type: cell-based, human; conditions: in the presence of Ponatinib
[3] = biological target: T1, JMJD2B (KDM4B) (Homo sapiens, UniProt O94953); conditions: demethylase activity in vitro; cited from earlier work
T1 sequence (O94953 1-1096): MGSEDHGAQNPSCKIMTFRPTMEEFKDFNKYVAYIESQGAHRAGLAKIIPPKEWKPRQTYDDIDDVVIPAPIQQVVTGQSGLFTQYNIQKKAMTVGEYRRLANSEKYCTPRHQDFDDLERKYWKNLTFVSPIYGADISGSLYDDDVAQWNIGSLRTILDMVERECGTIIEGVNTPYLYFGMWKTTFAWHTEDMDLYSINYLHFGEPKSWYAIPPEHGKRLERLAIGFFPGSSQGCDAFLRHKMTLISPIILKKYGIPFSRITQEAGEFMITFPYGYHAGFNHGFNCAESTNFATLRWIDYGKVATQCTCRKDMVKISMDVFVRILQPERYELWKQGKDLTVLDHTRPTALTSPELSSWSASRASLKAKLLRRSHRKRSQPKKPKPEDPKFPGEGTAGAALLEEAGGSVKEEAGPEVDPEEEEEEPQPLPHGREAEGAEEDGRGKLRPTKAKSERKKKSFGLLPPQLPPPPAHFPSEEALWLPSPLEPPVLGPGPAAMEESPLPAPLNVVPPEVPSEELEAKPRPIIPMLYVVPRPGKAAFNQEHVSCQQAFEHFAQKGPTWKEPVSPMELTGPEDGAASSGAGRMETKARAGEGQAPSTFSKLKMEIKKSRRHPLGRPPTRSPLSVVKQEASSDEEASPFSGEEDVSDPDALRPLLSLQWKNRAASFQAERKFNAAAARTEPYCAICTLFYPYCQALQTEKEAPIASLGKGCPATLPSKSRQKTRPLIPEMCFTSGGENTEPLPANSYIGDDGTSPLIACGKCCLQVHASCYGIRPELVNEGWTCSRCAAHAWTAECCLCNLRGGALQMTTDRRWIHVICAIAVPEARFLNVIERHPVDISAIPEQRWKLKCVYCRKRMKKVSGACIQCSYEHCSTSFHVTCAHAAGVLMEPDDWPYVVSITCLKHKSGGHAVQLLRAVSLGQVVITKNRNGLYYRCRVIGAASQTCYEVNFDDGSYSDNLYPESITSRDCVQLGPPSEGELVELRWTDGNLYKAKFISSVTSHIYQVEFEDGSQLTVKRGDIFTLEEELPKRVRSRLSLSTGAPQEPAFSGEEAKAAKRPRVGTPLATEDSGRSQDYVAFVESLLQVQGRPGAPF

[4] = test system: BE, dysplasia and cancer stem cells; experiment: 3D (ALI) culture of patient-matched BE, dysplasia and cancer stem cells; assay type: cell-based, human; conditions: combined with Ponatinib
Excerpt: FIG. 5B. Left, Scanned images of top view of BE, dysplasia and cancer stem cells (green) generated ALI structures in the presence of absence of drug combinations.

[5] = test system: Barrett's, dysplasia or EAC stem cells; experiment: Co-culture of esophageal stem cells with Barrett's, dysplasia or EAC stem cells; assay type: cell-based, human; conditions: together with 1 μM Ponatinib
Description: FIG. 6. Patient-matched BE, dysplasia and cancer stem cells (Krt7+, Green) were mixed with Krt5+ (red) ESO cells and co-cultured for five days and then treated with seven selected drugs together with 1 μM Ponatinib.
BE has been known to be the precursor of the dysplastic and cancerous lesions of EAC. […] Moreover, PCA analysis of Barrett's stem cells derived from 12 patients together with dysplasia, cancer and Esophageal squamous stem cells confirmed that the stem cells of dysplasia and cancer shared very similar gene expression with Barrett's stem cells (FIGS. 4A & B). […] The effects of the eight drug hits in combination with Ponatinib were tested in the cell culture of co-seeding esophageal stem cells and Barrett's, dysplasia or EAC stem cells. […] Given these three entities always co-exist in patients with EAC, our strategies of eradicating all of them could help to eliminate the chance of recurrence of EAC patients drastically.

[6] = test system: Barrett's stem cells (GFP) and esophageal squamous stem cells (RFP); experiment: 3D air-liquid interface (ALI) co-culture of Barrett's and esophageal stem cells; assay type: cell-based, human; conditions: in the presence of Ponatinib
Description: A 3D culture model was generated to mimic Barrett's Esophagus in vitro. The esophageal squamous stem cells and Barrett's stem cells were co-cultured in the transwell insert. Following the creation of air-liquid interface, it was observed that the BE islands located among well-differentiated squamous epithelium that well recapitulated the histology of human BE in the patient. Given the similarity of this artificial model and human pathology, the hits were tested in this system to further validate them. […] The esophageal squamous stem cells were labeled with red fluorescent protein (RFP) while Barrett's stem cells were labeled with green fluorescent protein (GFP). Without the treatment, it was observed that a mixture of GFP and RFP labeled cells in culture.

## Clc1ccc(N/N=C(\c2ccccc2)c2ccccn2)nc1 [JIB04]
[1]; NSG mice, with Ponatinib
  BE stem cells in treated structures (histological analysis): not detected
  Krt5+ ESO structures in treated samples: visibly more robust
[1]; combination with Ponatinib, clonogenic analysis
  clonogenic Barrett's stem cells from xenografts: lack of clonogenic Barrett's stem cells
[1]; combination with Ponatinib, intraperitoneally, two weeks following the treatment
  Barrett's structures in xenografts (histology): total loss
[2]
  effect on Esophageal squamous stem cells in co-culture: promoting
[2]; nine Barrett's stem cell lines
  lethality to Barrett's stem cells in co-culture: uniform lethality to all Barrett's stem cells
[3]
  pIC50: ~6.36
[4]
  eradication of BE, dysplasia and cancer stem cells in 3D (ALI) culture: eradicate
[5]
  growth of BE, dysplasia and cancer stem cells in co-culture with ESO cells: most effective
[6]
  cross sections of the ALI structures: intact esophageal squamous epithelium without any existence of Barrett's epithelium
[6]; eight Barrett's stem cell lines
  GFP labeled Barrett's stem cells in 3D ALI co-culture: disappearance
